Data as given in PMC11649115, “In vitro safety evaluation of dopamine D3R antagonist, R-VK4-116, as a potential medication for the treatment of opioid use disorder” (PLOS ONE, 2024).
Like-named read-outs stand apart in the source and are kept apart here.

Assays:
[1] = biological target: T1, OATP1B1 (Homo sapiens, UniProt Q9Y6L6); assay: Transporter mediated assay (substrate/inhibitor), MDCK-II cells; type: in vitro ADME
T1 construct: expressed in transfected cells; host or cells: MDCK-II cells
T1 sequence (Q9Y6L6 1-691): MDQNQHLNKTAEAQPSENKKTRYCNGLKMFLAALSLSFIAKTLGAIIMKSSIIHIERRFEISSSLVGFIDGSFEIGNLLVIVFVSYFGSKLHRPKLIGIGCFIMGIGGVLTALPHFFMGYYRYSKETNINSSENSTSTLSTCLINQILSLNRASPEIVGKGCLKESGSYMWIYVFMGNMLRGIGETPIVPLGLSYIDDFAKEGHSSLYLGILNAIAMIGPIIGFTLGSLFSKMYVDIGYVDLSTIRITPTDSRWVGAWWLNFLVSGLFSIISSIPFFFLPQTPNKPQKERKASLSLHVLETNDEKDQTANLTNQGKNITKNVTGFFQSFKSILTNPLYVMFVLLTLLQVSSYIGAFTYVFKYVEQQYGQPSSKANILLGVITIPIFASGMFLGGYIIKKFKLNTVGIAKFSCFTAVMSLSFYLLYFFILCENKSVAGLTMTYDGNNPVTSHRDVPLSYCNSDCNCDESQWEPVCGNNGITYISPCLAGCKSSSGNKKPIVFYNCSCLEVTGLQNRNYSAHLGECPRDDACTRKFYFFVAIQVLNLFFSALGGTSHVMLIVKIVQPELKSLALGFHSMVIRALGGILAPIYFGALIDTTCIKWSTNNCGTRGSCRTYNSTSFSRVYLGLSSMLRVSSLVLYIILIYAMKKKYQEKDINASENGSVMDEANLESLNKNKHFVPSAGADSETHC
Experimental: The MDCK-II cells were treated to express the transporter of interest. The transport of each probe substrate was determined by radiometric detection (Fig 1 in S1 File). […] For the uptake assay, the net transporter-mediated uptake-rate (V) of the substrate by each SLC transporter was calculated as follows: Transporter–mediatedupdaterate(pmol/min/cm^2)=(Cellularaccumulationincellsexpressingthetransporter)−(Meancellularaccumulationincontrolcells)/Surfacearea×incubationtime
Fold of activity and percent inhibition were determined as follows: Foldofactivity=(Meanuptakerate)transporterexpressingcells/(Meanuptakerate)controlcells Percentinhibition=100−100×(Transport‐mediatedupdaterate)withinhibitor/(Transport‐mediatedupdaterate)vehiclecontrol

[2] = biological target: T2, BCRP (Homo sapiens, UniProt Q9UNQ0); assay: as above; type: in vitro ADME
T2 construct: expressed in transfected cells; host or cells: MDCK-II cells
T2 sequence (Q9UNQ0 1-655): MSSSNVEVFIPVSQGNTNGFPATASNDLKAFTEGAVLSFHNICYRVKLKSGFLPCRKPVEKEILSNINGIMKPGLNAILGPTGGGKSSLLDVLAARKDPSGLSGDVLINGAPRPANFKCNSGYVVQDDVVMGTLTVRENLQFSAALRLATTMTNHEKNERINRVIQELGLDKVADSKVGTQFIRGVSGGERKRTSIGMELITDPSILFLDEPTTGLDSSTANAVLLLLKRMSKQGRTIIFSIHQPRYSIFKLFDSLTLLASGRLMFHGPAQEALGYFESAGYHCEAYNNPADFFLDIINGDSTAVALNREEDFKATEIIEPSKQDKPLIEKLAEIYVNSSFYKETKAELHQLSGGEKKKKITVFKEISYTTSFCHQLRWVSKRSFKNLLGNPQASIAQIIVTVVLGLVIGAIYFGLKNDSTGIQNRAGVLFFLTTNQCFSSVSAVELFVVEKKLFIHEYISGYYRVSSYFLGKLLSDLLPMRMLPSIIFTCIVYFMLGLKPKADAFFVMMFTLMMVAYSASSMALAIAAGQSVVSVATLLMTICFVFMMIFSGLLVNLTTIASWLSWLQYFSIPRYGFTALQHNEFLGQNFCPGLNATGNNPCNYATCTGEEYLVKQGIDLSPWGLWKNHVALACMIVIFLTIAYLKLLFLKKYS
Experimental: The MDCK-II cells were treated to express the transporter of interest.
For BCRP and P-gp, the apparent permeability Papp and Efflux Ratio (ER) were calculated [16]. Net basal (B) to apical (A) flux (B → A) of the substrate transport (pmol/min/cm^2) by BCRP or P-gp was calculated by subtracting A → B flux from B → A flux.

[3] = test system: 10 enzyme targets; assay: Enzyme and uptake assays; type: biochemical; conditions: 10 μM
Experimental: The purpose of this study was to provide a first step in preliminary safety assessments by providing early identification of potential off-target interactions for the optimization of safety margins. This study was conducted by Eurofins Cerep (France) and Eurofins Discovery (St. Charles, MO). R-VK4-116 was tested in enzyme and uptake assay with 10 enzyme targets (Figs 4 and 5 in S1 File), and cellular and nuclear receptor functional assays with 24 receptor targets (Figs 5 and 6 in S1 File). Compound enzyme inhibition effect was calculated as a % inhibition of control enzyme activity. The cellular agonist effect was calculated as a % of the control response to a known reference agonist for each target, and the cellular antagonist effect was calculated as a % inhibition of the control reference agonist response for each target.

[4] = biological target: T3, HPK1 (Homo sapiens, UniProt Q92918); assay: KINOMEscan binding (% Ctrl, Kd)
T3 construct: made in house; host or cells: E. coli BL21-derived host (T7 phage) or HEK-293
Experimental: Briefly, E. coli host derived from the BL21 strain were grown to log-phase and infected with kinase-tagged T7 phage and incubated with shaking at 32°C until lysis. The lysates were centrifuged and filtered to remove cell debris. The remaining kinases were produced in HEK-293 cells and subsequently tagged with DNA for qPCR detection. Streptavidin-coated magnetic beads were treated with biotinylated small molecule ligands to generate affinity resins for kinase assays. The liganded beads were blocked with excess biotin and washed to remove unbound ligand and to reduce non-specific phage binding. […] Selectivity Score (S-score) was a quantitative measure of compound selectivity. […] The binding constants (Kds) were also determined with a standard dose-response curve using the Hill equation and Levenberg-Marquardt algorithm [24, 25].

[5] = test system: D3R; design: method as in PMID 31526003; conditions: read-out: antagonist effect on D3R (IC50); cited from earlier work
[6] = test system: oxycodone self-administration; design: method as in PMID 30555159; conditions: rodents, 5, 15 and 25 mg/kg ref 6; cited from earlier work
[7] = test system: CYP2B6 mRNA; assay: CYP induction, mRNA, primary cultured human hepatocytes; conditions: primary cultured human hepatocytes, Fold Induction (CYP2B6 mRNA expression)
Text: (§1) Rifampicin as a positive control and solvent (0.1% DMSO) vehicle control were also included. The acceptance criteria for CYP induction was ≥ 2-fold induction for significant CYP activity, while the acceptance criteria for CYP mRNA was ≥ 4-fold for significant CYP induction.

[8] = test system: CYP2B6; assay: as above; conditions: primary cultured human hepatocytes, Fold Induction (CYP2B6 mRNA expression)
Text: as §1

T3 sequence (Q92918 whole entry): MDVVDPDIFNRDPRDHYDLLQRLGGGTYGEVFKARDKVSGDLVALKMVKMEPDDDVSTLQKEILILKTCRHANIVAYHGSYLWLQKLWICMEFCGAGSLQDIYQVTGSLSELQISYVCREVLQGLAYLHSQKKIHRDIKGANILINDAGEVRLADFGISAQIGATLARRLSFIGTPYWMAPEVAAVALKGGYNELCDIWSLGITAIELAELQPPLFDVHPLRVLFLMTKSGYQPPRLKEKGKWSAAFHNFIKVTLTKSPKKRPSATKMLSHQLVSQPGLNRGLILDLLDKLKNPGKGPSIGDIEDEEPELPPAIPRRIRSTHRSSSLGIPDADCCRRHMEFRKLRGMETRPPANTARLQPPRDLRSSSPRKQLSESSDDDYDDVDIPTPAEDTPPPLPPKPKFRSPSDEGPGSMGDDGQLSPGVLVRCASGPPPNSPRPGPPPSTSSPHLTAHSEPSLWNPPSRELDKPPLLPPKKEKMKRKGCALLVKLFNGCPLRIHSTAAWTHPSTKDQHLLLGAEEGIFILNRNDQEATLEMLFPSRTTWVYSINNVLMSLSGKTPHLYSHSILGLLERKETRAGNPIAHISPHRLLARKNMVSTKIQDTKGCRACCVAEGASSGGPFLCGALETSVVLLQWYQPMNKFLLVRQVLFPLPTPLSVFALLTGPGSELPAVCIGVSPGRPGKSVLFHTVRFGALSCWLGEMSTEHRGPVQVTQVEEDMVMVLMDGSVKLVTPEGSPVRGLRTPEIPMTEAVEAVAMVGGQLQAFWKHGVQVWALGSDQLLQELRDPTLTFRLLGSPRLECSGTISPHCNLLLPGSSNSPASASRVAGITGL

In the case of `CCc1cc(Cl)c(OC)c(N2CCN(CC(O)CCNC(=O)c3cc4ccccc4[nH]3)CC2)c1` (stereo not drawn) [R-VK4-116, N-(4-(4-(3-chloro-5-ethyl-2-methoxyphenyl)piperazin-1-yl)-3-hydroxybutyl)-1H-indole-2-carboxamide], the “fold difference in mean uptake rate (substrate test)” value ([1]; OATP1B1, 1 μM, transporter cells vs control cells) is reported as < 2 fold, the “Inhibition (%)” value ([1]; OATP1B1, 0.1% BSA, 10 μM) is reported as “no statistically significant inhibition” and the inhibition at 10 µM ([1]; human, polarized monolayer of MDCK-II cells expressing OATP1B1, OATP1B1, 0.1% BSA, 10 μM) is reported as 5.5 ± 17.3%. For the same molecule, the Papp A→B at 1 µM ([2]; BCRP, substrate test, 1 µM) was < 0.2 ×10⁻⁶ cm/s, the Papp B→A at 1 µM ([2]; BCRP, substrate test, 1 µM) was < 0.1 ×10⁻⁶ cm/s and the inhibition at 10 µM ([2]; probe prazosin 2 μM) was 54 ± 1.46%. For the same molecule, the “enzyme inhibition effects or uptake” value [3] was “did not show any enzyme inhibition effects or uptake”, the Kd ([4]; 11-point curve 0.001 to 10 μM, read-out: binding constant (Kd)) was > 10000 nM and the remaining binding at 1 µM ([4]; read-out: %Control) was < 35%. For the same molecule, the remaining binding at 1 µM ([4]; read-out: Gene (S-score with % control): HPK1) was 29%, the IC50 [5] was 350 nM and the oxycodone self-administration [6] was “decreased”. The fold induction at 48 h, 10 µM ([7]; hepatocyte Lot 336, 10 µM) was 1.9, the fold induction at 48 h, 0.01 µM ([7]; hepatocyte Lot 348B, 0.01 µM) was 0.98 and the fold induction at 48 h, 0.1 µM ([7]; hepatocyte Lot 348B, 0.1 µM) was 1.2. It also gave a fold induction at 48 h, 1 µM ([7]; hepatocyte Lot 348B, 1 µM) of 1, a fold induction at 48 h, 3 µM ([7]; hepatocyte Lot 348B, 3 µM) of 1.1 and a fold induction at 48 h, 5 µM ([7]; hepatocyte Lot 348B, 5 µM) of 1.1. The fold induction at 48 h, 10 µM ([7]; hepatocyte Lot 348B, 10 µM) was 1.1, the fold induction at 48 h, 0.01 µM ([7]; hepatocyte Lot 399, 0.01 µM) was 1.1 and the fold induction at 48 h, 0.01 µM ([8]; hepatocyte Lot 336, 0.01 µM) was 1. It also gave a fold induction at 48 h, 0.1 µM ([8]; hepatocyte Lot 336, 0.1 µM) of 1, a fold induction at 48 h, 1 µM ([8]; hepatocyte Lot 336, 1 µM) of 1.3 and a fold induction at 48 h, 3 µM ([8]; hepatocyte Lot 336, 3 µM) of 1.9. The fold induction at 48 h, 5 µM ([8]; hepatocyte Lot 336, 5 µM) was 1.8, the fold induction at 48 h, 0.1 µM ([8]; hepatocyte Lot 399, 0.1 µM) was 1.2 and the fold induction at 48 h, 1 µM ([8]; hepatocyte Lot 399, 1 µM) was 1.2. The fold induction at 48 h, 3 µM ([8]; hepatocyte Lot 399, 3 µM) was 1.3, the fold induction at 48 h, 5 µM ([8]; hepatocyte Lot 399, 5 µM) was 1.2 and the fold induction at 48 h, 10 µM ([8]; hepatocyte Lot 399, 10 µM) was 1.2.
